Values of other authors, collected in patent publication US7759335B2, “Cannabinoid receptor antagonists/inverse agonists useful for treating metabolic disorders, including obesity and diabetes” (Jenrm Discovery, Inc., priority 2008, dated 2010).

Conditions: patients with type 2 diabetes not treated with other anti-diabetic medications; after six months of treatment; baseline value 7.9; placebo reduction 0.3%

## Cc1c(C(=O)NN2CCCCC2)nn(-c2ccc(Cl)cc2Cl)c1-c1ccc(Cl)cc1 [rimonabant]
  HbA1c levels lowered: 0.8%
